Laboratory results published in patent US9359399B2, “Synthetic peptide amides” (Cara Therapeutics, Inc., priority 2006, dated 2016).

Key:
[1] = test system: acetic acid-induced writhing in mice; assay: Acetic acid-induced writhing assay in mice; assay type: in vivo, ICR mice; conditions: mice
Experimental: 12: 525-562; Ramabadran and Bansinath (1986) Pharm. Res. 3: 263-270]. Intraperitoneal administration of dilute acetic acid solution causes a writhing behavior in mice. A writhe is defined as a contraction of the abdominal muscles accompanied by an extension of the forelimbs and elongation of the body. The number of writhes observed in the presence and absence of test compounds is counted to determine the analgesic activity of the compounds.
Each day a writhing assay was performed, a vehicle control group of mice (n=6-8) that were treated identically to the test group (except that test compound was omitted from the injection dose) was always included and the average total number of writhes in this group used as the absolute reference point defining 0% decrease in pain perception for all other mice receiving a test compound on that day. Specifically, the total number of writhes of each mouse receiving the test compound was converted to % decrease in pain perception according to the following equation:
[formula] Where Wv is the mean number of writhes in vehicle-treated group and Wc is the number of writhes in compound-treated mouse.
Male ICR mice, 23-37 grams in weight, were weighed and placed in individual observation chambers (usually a 4000 ml glass beaker) with a fine layer of SANI-CHIPS rodent bedding at the bottom. […] After administration of the compound or vehicle control, mice were returned to their individual observation chambers awaiting the intraperitoneal administration of acetic acid solution. […] and acetic acid injection, a dose corresponding to 10 ml/kg of a 0.6% (v/v) acetic acid solution was then injected into the right lower quadrant of the abdomen. Immediately after the injection, the mouse was returned to its observation chamber and the recording of the number of writhes begun immediately. The number of writhes was counted over a 15-min period starting from the time of acetic acid injection, the data being collected over three separate 5 minute time periods (0-5 min, 5-10 min, and 10-15 min).
The data were reported as ED50, and Hill coefficient. […] The Hill coefficient is expressed as the arithmetic mean±sem calculated from the values obtained from the animals.
For dose-response analysis, raw data were converted to % maximum possible effect (% MPE) using the formula: % MPE=((test score−vehicle-treated score)/(0−vehicle-treated score))*100. Raw data were analyzed using a one-way ANOVA followed by Dunnett's post-tests. […] Compounds were administered by the intravenous route.

[2] = test system: mechanical hypersensitivity induced by L5/L6 spinal nerve ligation in rats; assay: Spinal nerve ligation (SNL) model of neuropathic pain; assay type: in vivo, rat; conditions: intravenous route
Experimental: The SNL model (Kim and Chung 1992) was used to induce chronic neuropathic pain. The rats were anesthetized with isoflurane, the left L5 transverse process was removed, and the L5 and L6 spinal nerves were tightly ligated with 6-0 silk suture. The wound was then closed with internal sutures and external staples. Fourteen days following SNL, baseline, post-injury and post-treatment values for non-noxious mechanical sensitivity were evaluated using 8 Semmes-Weinstein filaments (Stoelting, Wood Dale, Ill., USA) with varying stiffness (0.4, 0.7, 1.2, 2.0, 3.6, 5.5, 8.5, and 15 g) according to the up-down method (Chaplan et al. 1994). Animals were placed on a perforated metallic platform and allowed to acclimate to their surroundings for a minimum of 30 minutes before testing. The mean and standard error of the mean (SEM) were determined for each paw in each treatment group. Since this stimulus is normally not considered painful, significant injury-induced increases in responsiveness in this test are interpreted as a measure of mechanical allodynia. […] Compound (2) was administered by the intravenous route. FIG. 10 summarizes the results of these experiments.

[3] = test system: capsaicin-induced ocular pain; assay: Capsaicin-induced ocular pain, palpebral opening in rabbits; assay type: in vivo, albino New Zealand strain rabbits; conditions: 10-30 min. post capsaicin
[4] = test system: pancreatitis-induced abdominal hypersensitivity in rats; assay: Rat pancreatitis model (dibutylin dichloride), abdominal hypersensitivity; assay type: in vivo; conditions: intraperitoneal route
Experimental: Chronic pancreatic inflammation was induced in rats by intravenous administration of dibutylin dichloride (DBTC, Aldrich Milwaukee, Wis.) dissolved in 100% ethanol at a dose of 8 mg/kg under isofluorane anesthesia (2-3 liters/min, 4%/vol until anesthetized, then 2.5%/vol throughout the procedure. Control animals received the same volume of vehicle (100% ethanol) alone. Pancreatitis pain was assessed by determination of abdominal sensitivity to probing the abdomen of rats with a calibrated von Frey filament (4 g). Rats were allowed to acclimate in suspended wire-mesh cages for 30 min before testing. A response was indicated by the sharp withdrawal of the abdomen, licking of abdominal area, or whole body withdrawal. […] The mean occurrence of withdrawal events in each trial is expressed as the number of responses to 10 applications. Rats without inflammation of the pancreas typically display withdrawal frequencies to probing with von Frey filament of 0-1. The animals were allowed to recover for 6 days after DBTC administration prior to any pharmacological manipulations.
The number of positive responses, following abdominal probing (out of a possible 10), were recorded at each time point. […] Raw data were analyzed using a two-way repeated measures ANOVA followed by Bonferroni post-tests. […]

[5] = test system: pruritus induced by compound 48/80 in mice; assay: Pruritus model in mice, compound 48/80-induced scratching; assay type: in vivo, Swiss Webster mice; conditions: inhibition of scratching
Experimental: (§1) Groups of 10 (and in one case, 11) male Swiss Webster mice (25-30 g) were used. Each animal was weighed and allowed to acclimate for at least one hour in individual, rectangular observation boxes. The tails of mice were immersed for 30 seconds in warm water to dilate tail veins and the animals then received an intravenous injection of either vehicle (saline) or compound (2) (0.01, 0.03, 0.10 and 0.30 mg of free base/kg). Fifteen minutes later, each mouse was given either GNTI dihydrochloride (Tocris) (0.30 mg/kg; 0.25 ml/25 g) or compound 48/80 (Sigma) (50 μg in 0.10 ml saline) subcutaneously behind the neck. The animals were then observed in pairs (occasionally in threes) and the number of hind leg scratching movements directed at the neck was counted for 30 minutes. […]

[6] = test system: pruritus induced by GNTI in mice; assay: Pruritus model in mice, GNTI-induced scratching; assay type: in vivo, Swiss Webster mice; conditions: inhibition of scratching
Experimental: as §1

## CC(C)C[C@@H](NC(=O)[C@@H](Cc1ccccc1)NC(=O)[C@H](N)Cc1ccccc1)C(=O)N[C@H](CCCCN)C(=O)N1CCC(N)(C(=O)O)CC1 [Compound (2), D-Phe-D-Phe-D-Leu-D-Lys-[ω(4-aminopiperidine-4-carboxylic acid)]-OH]
[1]; intravenously, 0.01 mg/kg to 0.3 mg/kg
  dose response in the acetic acid-induced writhing model: linear dose response relationship
[1]; iv, 15 min post-dose
  ED50 (mg/kg, iv, 15 min post-dose): 0.07 mg/kg
[1]; iv, 180 min post-ED90
  % MPE (180 min post-ED90): 77 ± 5% MPE
[1]; iv, 240 min post-ED90
  % MPE (240 min post-ED90): 81 ± 4% MPE
[1]; iv, 300 min post-ED90
  % MPE (300 min post-ED90): 84 ± 4% MPE
[2]
  ED50, attenuation of mechanical hypersensitivity (SNL model): 0.38 mg/kg
[3]; Table VII, 10 mg/ml, five animals
  Mean palpebral opening (% Control): 82.7 % Control
[3]; Table VIII, 1 mg/ml, ten animals
  Mean palpebral opening (% Control): 60.5 % Control
[3]; Table VIII, 10 mg/ml, ten animals
  Mean palpebral opening (% Control): 56.6 % Control
[3]; Table VIII, 25 mg/ml, ten animals
  Mean palpebral opening (% Control): 75.5 % Control
[3]; Table VIII, 50 mg/ml, ten animals
  Mean palpebral opening (% Control): 87.5 % Control
[4]
  ED50, attenuation of abdominal hypersensitivity (pancreatitis model): 0.03 mg/kg
[5]
  Compound 48/80 Model ED50 (mg/kg, iv, 15 min post-dose): 0.08 (0.04-0.2) mg/kg
[6]
  GNTI Model ED50 (mg/kg, iv, 15 min post-dose): 0.05 (0.02-0.1) mg/kg
